Reference: patent publication US20230309555A1, “ENVIRONMENTALLY RESPONSIVE TRANS-2-HEXENAL SUSTAINED-RELEASE AGENT, PREPARATION METHOD, AND APPLICATION” (ZHEJIANG UNIVERSITY, priority 2022, published 2023)

Tests used:
Botrytis cinerea [1] = assay: growth of Botrytis cinerea on potato dextrose agar plate medium; format: cell-based; details: after 4 days culture at 25 °C
Description: Botrytis cinerea lesion with a diameter of 5 mm was inoculated on the center of a potato dextrose agar medium plate. The experiment was performed by seven groups as follows: • a. A BLANK group: nothing was added; • b. A GSH group: 1 g reductive glutathione was added to a lid of a Petri dish and the Petri dish was sealed immediately; • c. A GSH3h group: 1 g reductive glutathione was added to a lid of a Petri dish and then the Petri dish was sealed after being left open for 3 h at room temperature; • d. A Group […]: 20 μL trans-2-hexenal was added to a lid of a Petri dish and the Petri dish was sealed immediately; • e. An E-2-[…] group: 20 μL trans-2-hexenal was added to a lid of a Petri dish and the Petri dish was sealed after being left open for 3 h at room temperature; • f. […] After all groups were sealed completely, the groups were inverted and cultured at 25° C.The growth of Botrytis cinerea was checked regularly.

[2] = 0.05 g product, sealed vial 7 d; 4, 25, 45 °C; relative humidity 0%, 30%, 50%, 70%, 85%, 100%
Description: 20 mL glass vials were filled with 3 g of silica gel, 3 mL of saturated magnesium chloride solution, 3 mL of saturated potassium carbonate solution, 3 mL of saturated potassium iodide solution, 3 mL of saturated of potassium chloride solution, and 3 mL of pure water and then sealed until reaching relative humidity of 0%, 30%, 50%, 70%, 85% and 100%, respectively, and the mixed solution was balanced at 4° C. for 1 h. 0.05 g product was weighed and placed in a 2 mL glass vial, then transferred to the 20 mL glass vial and sealed for 7 d, and the release amount was measured every day.
20 mL glass vials were filled with 3 g of silica gel, 3 mL of saturated magnesium chloride solution, 3 mL of saturated potassium carbonate solution, 3 mL of saturated potassium iodide solution, 3 mL of saturated potassium chloride solution, and 3 mL of pure water until reaching relative humidity of 0%, 30%, 50%, 70%, 85% and 100%, respectively, and the mixed solution was balanced at 25° C. for 1 h. 0.05 g product was weighed in a 2 mL glass vial, then transferred to the 20 mL glass vial and sealed for 7 d, and the release amount was measured every day. […]

Botrytis cinerea [3] = details: strawberries injected with 4 µL of 5×10^5 cfu/mL Botrytis cinerea; 6 g product at bottom of fresh-keeping box; room temperature
Description: Strawberries which were harvested at the same maturity, similar in size and without any infestation with insects or pets and damage, were selected. The strawberries were surface-sterilized by immersing in 0.5% (v/v) sodium hypochlorite for 5 min, then washed with sterile water to remove residues and dried at room temperature. The strawberries were randomly divided into 2 groups, each group including 33 strawberries, and then packed into a certain volume of fresh-keeping boxes (11 strawberries per box). In group a, 4 µL of 5×10^5cfu/mL of Botrytis cinerea solution was injected into the equatorial part of the strawberry. […] The experiment was conducted at room temperature and the strawberries were observed daily for decay, and the diameter of the lesions was measured daily.

[4] = Petri dish sealed after being left open for 3 h at room temperature
[5] = Petri dish sealed immediately after addition

SMILES | lesion diameter of Botrytis cinerea on plate medium (Botrytis cinerea [1]; [4]) | lesion diameter of Botrytis cinerea on plate medium (Botrytis cinerea [1]; [5]) | release rate of trans-2-hexenal from the products [2] | bacterial inhibition (incidence of fruit gray mold) (Botrytis cinerea [3]) | growth diameters of the lesion of fruit (Botrytis cinerea [3]) | difference in bacterial inhibition results between group sealed immediately and group sealed after being left open for 3 h (Botrytis cinerea [1]; 1 g product)
N[C@@H](CCC(=O)N[C@@H](CS)C(=O)NCC(=O)O)C(=O)O [reductive glutathione] | not significantly different from the blank group | not significantly different from the blank group |  |  |  | 
CCC/C=C/C=O [trans-2-hexenal] | larger than that of the glutathione/trans-2-hexenal addition product group | significantly lower lesion diameter than other groups |  |  |  | 
CCCC(CC=O)SC[C@H](NC(=O)CC[C@H](N)C(=O)O)C(=O)NCC(=O)O (stereo partly shown) | significantly smaller than that of the blank group | significantly smaller than that of the blank group | increased with the increase in relative humidity and temperature | better than the control group | lower than that of the control group | little difference
